From patent publication US5599793A, “Antithromobotic agents” (Eli Lilly and Company, priority 1995, dated 1997)

How the values were obtained:
Assay type in all cases: biochemical
Human Thrombin = Human Thrombin (Homo sapiens, UniProt P00734); test: Inhibition of amidase activity of thrombin (Kass); conditions: apparent association constant, mean over a range of concentrations
factor Xa = molecular target: T1, factor Xa (Homo sapiens, UniProt P00742); test: Serine protease selectivity, chromogenic substrate (Kass), factor Xa; conditions: substrate N-Benzoyl-Ile-Glu-Gly-Arg-p-nitroanilide
T1 construct: Human factors X, Xa, IXa, XIa, and XIIa are purchased; purchased Enzyme Research Laboratories, South Bend, Ind

Human plasma [1] = test: Human plasma anticoagulation, activated partial thromboplastin time (APTT); conditions: concentration required to double the APTT, linear extrapolation
Human plasma [2] = test: Human plasma anticoagulation, prothrombin time (PT); conditions: concentration required to double the PT, linear extrapolation

T1 sequence (P00742 235-488 limits assumed): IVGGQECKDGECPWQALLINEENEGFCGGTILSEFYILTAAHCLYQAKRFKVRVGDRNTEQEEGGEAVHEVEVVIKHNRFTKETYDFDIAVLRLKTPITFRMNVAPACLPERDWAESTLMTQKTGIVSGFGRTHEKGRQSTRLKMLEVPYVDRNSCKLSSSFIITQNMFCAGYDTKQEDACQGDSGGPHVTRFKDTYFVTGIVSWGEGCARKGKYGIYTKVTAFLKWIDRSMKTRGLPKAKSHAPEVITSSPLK
T1 sequence (P00742 41-179 partner limits assumed): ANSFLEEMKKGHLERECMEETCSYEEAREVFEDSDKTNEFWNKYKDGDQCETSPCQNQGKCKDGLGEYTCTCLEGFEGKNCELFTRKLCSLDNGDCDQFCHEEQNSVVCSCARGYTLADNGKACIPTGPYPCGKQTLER

Structure (SMILES)	Enzyme Kass, Human Thrombin (Human Thrombin)	Enzyme Kass, Xa (factor Xa) [L/mol × 10^6]	2x Clotting time, APTT (Human plasma [1])	2x Clotting time, PT (Human plasma [2])	Enzyme Kass, Human Thrombin (Human Thrombin; HCl)	Enzyme Kass, Xa (factor Xa; HCl) [L/mol × 10^6]	2x Clotting time, APTT (Human plasma [1]; HCl) [ng/mL]	2x Clotting time, PT (Human plasma [2]; HCl)
Cl.Cl.N=C(N)NCCC[C@@H](C=O)NC(=O)[C@@H]1CC2CCCCC2N1C(=O)[C@H]1CCCCN1 (relative stereo) [Example 7, N-[(1-D-homoprolyl-cis-octahydro-1H-indol-2(S)-yl)carbonyl]-L-argininal dihydrochloride]	340 L/mol × 10^6	1.6	450 ng/mL	1,500 ng/mL	–	–	–	–
CCS(=O)(=O)N[C@@H](C(=O)N1[C@H](C(=O)N[C@H](C=O)CCCNC(=N)N)C[C@@H]2CCCC[C@@H]21)c1ccccc1.Cl (relative stereo) [Example 22, EtSO2 -D-Phg-cis-Ohi-ArgH.HCl]	6,170 L/mol × 10^6	11.8	332 ng/mL	1,208 ng/mL	–	–	–	–
Cl.Cl.N=C(N)NCCCC(C=O)NC(=O)C1CC2CCCCC2N1C(=O)C1NCCC2CCCCC21 [Example 20, D-1-cis-Piq-cis-Ohi-ArgH.2 HCl]	–	–	–	–	1,630 L/mol × 10^6	0.75	627	1,452 ng/mL
Cl.Cl.N=C(N)NCCC[C@H](C=O)NC(=O)[C@@H]1C[C@H](Oc2ccccc2)CN1C(=O)[C@H]1CCCCN1 (relative stereo) [Example 8, D-homoprolyl-L-cis-4-phenoxy-L-prolyl-D-argininal dihydrochloride]	50 L/mol × 10^6	3.0	520 ng/mL	1,900 ng/mL	–	–	–	–
Cl.Cl.Cl.N=C(N)NCCC[C@@H](C=O)NC(=O)[C@@H]1C[C@H](Oc2ccc(N)cc2)CN1C(=O)[C@H]1CCCCN1 (relative stereo) [Example 11, D-hPro-Pro(4-cis-(4-NH2-phenoxy))-ArgH.3 HCl]	28 L/mol × 10^6	0.66	1,400 ng/mL	5,900 ng/mL	–	–	–	–
CCC[C@H]1C[C@@H](C(=O)N[C@H](C=O)CCCNC(=N)N)N(C(=O)[C@H]2CCCCN2)C1.Cl.Cl (relative stereo) [Example 3, D-hPro-Pro(4-cis-n-propyl)-ArgH.2 HCl]	27 L/mol × 10^6	1.7	610 ng/mL	2,900 ng/mL	–	–	–	–
Cl.Cl.N=C(N)NCCC[C@@H](C=O)NC(=O)[C@@H]1C[C@H](Oc2ccccc2)CN1C(=O)C1NCCC2CCCCC21 (relative stereo) [Example 15, D-1-Piq-Pro(4-cis-phenoxy)-ArgH.2 HCl]	230 L/mol × 10^6	2.6	940 ng/mL	1,600 ng/mL	–	–	–	–
Cl.Cl.N=C(N)NCCC[C@@H](C=O)NC(=O)[C@@H]1C[C@H](Cc2ccccc2)CN1C(=O)[C@H]1CCCCN1 (relative stereo) [Example 5, D-hPro-Pro(4-cis-benzyl)-ArgH.2 HCl]	110 L/mol × 10^6	5.8	510 ng/mL	1,600 ng/mL	–	–	–	–
Cl.Cl.Cl.N=C(N)NCCC[C@@H](C=O)NC(=O)[C@@H]1C[C@H](Oc2cccnc2)CN1C(=O)[C@H]1CCCCN1 (relative stereo) [Example 9, D-hPro-Pro(4-cis-(3-pyridyloxy))-ArgH.3 HCl]	37 L/mol × 10^6	1.6	880 ng/mL	3,100 ng/mL	–	–	–	–
C[C@H]1C[C@@H](C(=O)N[C@H](C=O)CCCNC(=N)N)N(C(=O)[C@H]2CCCCN2)C1.Cl.Cl (relative stereo) [Example 1, D-homoprolyl-L-cis-4-methyl-prolyl-L-argininal dihydrochloride]	220 L/mol × 10^6	1.4	510 ng/mL	1,700 ng/mL	–	–	–	–
CC[C@H]1C[C@@H](C(=O)N[C@H](C=O)CCCNC(=N)N)N(C(=O)[C@H]2CCCCN2)C1.Cl.Cl (relative stereo) [Example 2, D-homoprolyl-L-cis-4-ethyl-prolyl-L-argininal dihydrochloride]	230 L/mol × 10^6	1.7	460 ng/mL	1,500 ng/mL	–	–	–	–
